Measurements published in paper PMC11021962, “Coupling and regulation mechanisms of the flavin-dependent halogenase PyrH observed by infrared difference spectroscopy” (The Journal of Biological Chemistry, 2024).

Columns and labels:
[1] = target: T1, PyrH (Streptomyces rugosporus, UniProt A4D0H5); test: light-induced FTIR difference spectroscopy; details: 3 mM compound, FAD-bound enzyme, 20 mM chloride, 35 mM DTT, pH 8.3, 10 °C, anaerobic, 450 nm photoreduction; substrate-binding site, allosterically coupled to FAD site
[2] = target: T1, PyrH; test: UV-vis spectroscopy after reconstitution and washing; light-induced FTIR difference spectroscopy; type: binding; details: pH 8.3, 20 mM NaCl, 60 mM potassium phosphate

T1 sequence (A4D0H5 whole entry): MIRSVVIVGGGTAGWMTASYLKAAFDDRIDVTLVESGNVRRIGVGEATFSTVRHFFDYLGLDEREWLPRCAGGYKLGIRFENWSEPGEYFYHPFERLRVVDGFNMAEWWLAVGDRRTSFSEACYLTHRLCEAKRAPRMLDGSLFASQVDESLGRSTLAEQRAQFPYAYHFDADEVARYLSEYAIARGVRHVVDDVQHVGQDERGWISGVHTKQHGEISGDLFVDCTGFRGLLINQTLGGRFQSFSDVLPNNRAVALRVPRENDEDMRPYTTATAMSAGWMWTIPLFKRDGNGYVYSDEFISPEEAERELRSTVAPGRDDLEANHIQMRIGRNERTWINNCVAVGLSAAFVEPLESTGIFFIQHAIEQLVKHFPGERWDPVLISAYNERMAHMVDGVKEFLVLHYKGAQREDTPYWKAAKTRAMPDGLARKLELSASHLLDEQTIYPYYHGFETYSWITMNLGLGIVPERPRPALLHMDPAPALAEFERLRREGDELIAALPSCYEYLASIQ

SMILES | light-induced FTIR difference spectroscopy [1] | UV-vis spectroscopy after reconstitution and washing; light-induced FTIR differe [2]
N[C@@H](Cc1c[nH]c2ccccc12)C(=O)O [tryptophan] | Tryptophan binding causes a change in the environment of FAD | –
N[C@@H](Cc1c[nH]c2ccc(Cl)cc12)C(=O)O [5-chlorotryptophan] | The binding of 5-chlorotryptophan also leads to a reduction of secondary structure changes | –
Cc1cc2nc3c(=O)[nH]c(=O)nc-3n(C[C@H](O)[C@H](O)[C@H](O)COP(=O)(O)OP(=O)(O)OC[C@H]3O[C@@H](n4cnc5c(N)ncnc54)[C@H](O)[C@@H]3O)c2cc1C [FAD] | – | FAD remained bound to PyrH in all three samples after extensive washing steps
